What was measured:
[1] = molecular target: unphosphorylated STAT3 monomer (uSTAT3) SH2 domain (Homo sapiens, UniProt P40763); test: Fluorescence polarisation assay for the inhibition of STAT3 dimerisation; type: binding; conditions: 350 nM uSTAT3, 10 nM FAM-pYLPQTV, 100 μM ligand; average of triplicate
Excerpt: Fluorescence Polarisation Assay for the Inhibition of STAT3 Dimerisation
The compounds were subjected to an in vitro fluorescent polarisation (FP)-based primary PPI binding screen to assess their ability to inhibit STAT3 dimerisation by interacting with the SH2 domain. In this FP assay, the unphosphorylated STAT3 monomer (uSTAT3) and a surrogate peptide FAM-pYLPQTV were used to form a ‘pseudo-dimer’. The assay is based on the concept that the compounds were expected to displace the surrogate peptide from the uSTAT3 resulting in a fluorescent read out.
Specifically, for the FP assay, a black (CORNING™) 96 well plate was thoroughly washed with distilled water and allowed to dry. A 100 nM FAM-pYLPQTV working solution was prepared from 10 μM FAM-pYLPQTV stock solution (in DMSO) using PBS pH 7.4 Buffer. 10 μl FAM-pYLPQTV was added to 350 nM uSTAT3 protein, the final concentration of protein in each well, in 90 μl PBS buffer pH 7.4. The MP value of the surrogate dimer complex was measured using a fluorescent plate reader (Envision™, Perkin Elmer™, USA), which provided the base MP value. The inhibitor solution was then added to the well and the assay plate was placed on a shaker for 5 minutes. The MP value for each well was then measured again. A shift in fluorescent values was observed due to displacement of the fluorescently-labelled surrogate peptide by the inhibitors, and the average inhibition for each inhibitor could be calculated as described below:
Base MP value (X) for each well=MP value of Protein and Probe (350 nm STAT3+10 nM FAM-pYLPQTV)−MP value of free FAM-pYLPQTV
Inhibitor MP value (Y) for each well=MP value of Protein+Probe+Inhibitor (350 nm uSTAT3+10 nM FAM-pYLPQTV+2 μL Inhibitor)−MP value of free FAM-pYLPQTV with 2 μL DMSO
% inhibition by any ligand/peptide=(X−Y)/X*100
For comparison purpose, the % inhibition produced by 100 μM pYLKTKF was considered to be 100%, and the inhibition produced by different ligands was reported as relative to 100 μM pYLKTKF.
% Inhibition produced by 100 μM pYLKTKF=A
% Inhibition produced by 100 μM Ligand=B
Relative inhibition (%)=B/A*100
The experiment was carried out in triplicate, and average values were taken as the measure of PPI inhibition.

[2] = system: MDA-MB-231 breast (STAT3-dependent) cancer cell line; test: MTT cell viability assay, MDA-MB-231; type: cell-based, human; conditions: for IC50: MTT, 48 hours exposure (table title); for Selectivity ratio: STAT3-null A4 versus STAT3-dependent MDA-MB-231
Excerpt: (§1) MTT Cell viability assay with both MDA-MB-231 breast (STAT3-dependent) and A4 (STAT3-null) cancer cell lines.
(§2) After observing significant STAT3 dimerisation inhibitory activity in the preliminary FP assay, the target ligand and related fragments were progressed to an MTT cytotoxicity assay to evaluate in a STAT3-dependent tumour cell line (MDA MB 231, breast cancer) and a STAT3 null A4 cell line. It was anticipated that the compounds would show selective toxicity towards the STAT3-dependent MDA MB 231 cell line and would have lost activity in the STAT3 null A4 cell line if the mechanism of action was STAT3-mediated.
(§3) For each cell line, a total of 10,000 cells were seeded for 24 hours before addition of the inhibitors. The cells were grown in normal cell culture conditions at 37° C. under a 5% CO2 humidified atmosphere using an appropriate medium. The cell count was adjusted to 10^5 cells/ml, and 5,000-20,000 cells were added per well depending on the cell line. The cells were then incubated for 24 hours, and 1 μl aliquots of the inhibitors were added to the wells in triplicate. […] Absorbance was quantified by spectrophotometry at A=570 nm (Envision™ Plate Reader, PerkinElmer™, USA). IC50 values were calculated by a dose-response analysis using the Prism GraphPad Prism® software package.

[3] = system: A4 (STAT3-null) cancer cell line; test: MTT cell viability assay, A4; type: cell-based
Excerpt: as §1, §2, §3

unphosphorylated STAT3 monomer (uSTAT3) SH2 domain, sequence (P40763 whole entry, the tested form may be a part): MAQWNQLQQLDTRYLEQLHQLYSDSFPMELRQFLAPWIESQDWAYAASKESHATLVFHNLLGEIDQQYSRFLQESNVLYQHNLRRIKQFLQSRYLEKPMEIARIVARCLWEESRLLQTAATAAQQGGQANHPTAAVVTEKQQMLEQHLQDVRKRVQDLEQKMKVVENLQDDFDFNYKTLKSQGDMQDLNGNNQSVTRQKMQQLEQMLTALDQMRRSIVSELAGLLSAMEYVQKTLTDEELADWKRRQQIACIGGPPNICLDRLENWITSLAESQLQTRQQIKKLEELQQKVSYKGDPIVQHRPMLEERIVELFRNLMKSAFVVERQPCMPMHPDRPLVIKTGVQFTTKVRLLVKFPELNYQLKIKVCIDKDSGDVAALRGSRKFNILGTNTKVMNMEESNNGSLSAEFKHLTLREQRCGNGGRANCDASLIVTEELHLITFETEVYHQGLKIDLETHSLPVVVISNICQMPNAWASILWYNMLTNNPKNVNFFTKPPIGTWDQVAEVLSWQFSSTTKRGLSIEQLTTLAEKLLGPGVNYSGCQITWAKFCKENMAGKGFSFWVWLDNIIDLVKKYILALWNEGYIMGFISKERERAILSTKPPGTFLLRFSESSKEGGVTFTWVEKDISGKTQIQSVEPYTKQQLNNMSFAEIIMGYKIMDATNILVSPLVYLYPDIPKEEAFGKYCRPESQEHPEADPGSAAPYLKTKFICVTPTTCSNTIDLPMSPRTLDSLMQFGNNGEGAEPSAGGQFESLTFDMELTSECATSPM

COC(=O)c1ccc(N(C)S(=O)(=O)c2cc(C(=O)Nc3cccc(N4CCCCC4)c3)sc2-c2ccc(N3CCCCC3)cc2)cc1 [Compound 19, methyl 4-((N-methyl-2-(4-(piperidin-1-yl)phenyl)-5-((3-(piperidin-1-yl)phenyl)carbamoyl)thiophene)-3-sulfonamido)benzoate] was tested, and the inhibition at 100 µM [1] was 43.7%, the IC50 ([2]; Homo sapiens, MDA-MB-231, 48 h) was 3.2 µM and the Selectivity ratio [2] was 10.81. For the same compound, the IC50 ([3]; exposure (table title)) was 34.6 µM.

COC(=O)c1ccc(N(C)S(=O)(=O)c2cc(C(=O)Nc3ccc4c(ccn4Cc4ccccc4)c3)sc2-c2ccc(N3CCCCC3)cc2)cc1 [Compound 20, methyl 4-((5-((1-benzyl-1H-indol-5-yl)carbamoyl)-N-methyl-2-(4-(piperidin-1-yl)phenyl)thiophene)-3-sulfonamido)benzoate] showed an inhibition at 100 µM [1] of 35.6%, an IC50 ([2]; Homo sapiens, MDA-MB-231, 48 h) of 10.5 µM and a Selectivity ratio [2] of 5.62. The IC50 ([3]; exposure (table title)) was 58.8 µM.

In the case of COC(=O)c1ccc(N(C)S(=O)(=O)c2cc(C(=O)Nc3ccc(N4CCCCC4)cc3)sc2Br)cc1 [Compound 21, methyl 4-((2-bromo-N-methyl-5-((4-(piperidin-1-yl)phenyl)carbamoyl)thiophene)-3-sulfonamido)benzoate], the inhibition at 100 µM [1] is reported as 22.7%, the IC50 ([2]; Homo sapiens, MDA-MB-231, 48 h) is reported as 23.5 µM and the Selectivity ratio [2] is reported as 2.75. The IC50 ([3]; exposure (table title)) was 64.7 µM.

Compound COC(=O)c1ccc(N(C)S(=O)(=O)c2cc(C(=O)Nc3cccc(N4CCOCC4)c3)sc2Br)cc1 [Compound 22, methyl 4-((2-bromo-N-methyl-5-((3-morpholinophenyl)carbamoyl)thiophene)-3-sulfonamido)benzoate] has an inhibition at 100 µM [1] of 11.7%, an IC50 ([2]; Homo sapiens, MDA-MB-231, 48 h) of 34.4 µM and a Selectivity ratio [2] of 2.13. For the same compound, the IC50 ([3]; exposure (table title)) was 73.5 µM.

For COC(=O)c1ccc(N(C)S(=O)(=O)c2cc(C(=O)Nc3ccc(CN4CCOCC4)cc3)sc2Br)cc1 [Compound 23, methyl 4-((2-bromo-N-methyl-5-((4-(morpholinomethyl)phenyl)carbamoyl)thiophene)-3-sulfonamido)benzoate], the inhibition at 100 µM [1] was 31.3%, the IC50 ([2]; Homo sapiens, MDA-MB-231, 48 h) was 12.5 µM and the Selectivity ratio [2] was 4.34. For the same compound, the IC50 ([3]; exposure (table title)) was 54.3 µM.

Work on COC(=O)c1ccc(N(C)S(=O)(=O)c2cc(C(=O)NCc3ccc(N4CCOCC4)cc3)sc2Br)cc1 [Compound 24, methyl 4-((2-bromo-N-methyl-5-((4-morpholinobenzyl)carbamoyl)thiophene)-3-sulfonamido)benzoate] yielded an inhibition at 100 µM [1] of 9.42%, an IC50 ([2]; Homo sapiens, MDA-MB-231, 48 h) of 34.5 µM and a Selectivity ratio [2] of 0.96. The IC50 ([3]; exposure (table title)) was 33.2 µM.

In the case of COC(=O)c1ccc(N(C)S(=O)(=O)c2cc(C(=O)NCc3ccc(OCCN4CCOCC4)cc3)sc2Br)cc1 [Compound 25, methyl 4-((2-bromo-N-methyl-5-((4-(2-morpholinoethoxy)benzyl)carbamoyl)thiophene)-3-sulfonamido)benzoate], the “% Inhibition” value [1] is reported as 49.62%, the IC50 [2] is reported as 3.6 µM and the IC50 ([3]; 48 hours exposure (table title)) is reported as 43.6 µM.

COC(=O)c1ccc(N(C)S(=O)(=O)c2cc(C(=O)NCc3ccc(N4CCCCC4)cc3)sc2Br)cc1 [Compound 26, methyl 4-((2-bromo-N-methyl-5-((4-(piperidin-1-yl)benzyl)carbamoyl)thiophene)-3-sulfonamido)benzoate] was tested, and the inhibition at 100 µM [1] was 8.24%, the IC50 ([2]; Homo sapiens, MDA-MB-231, 48 h) was 14.5 µM and the Selectivity ratio [2] was 1.77. It also gave an IC50 ([3]; exposure (table title)) of 25.8 µM.

Compound COC(=O)c1ccc(NC(=O)c2cc(S(=O)(=O)N(C)c3ccc(C(=O)OC)cc3)c(Br)s2)cc1 [Compound 27, methyl 4-(5-bromo-4-(N-(4-(methoxycarbonyl)phenyl)-N-methylsulfamoyl)thiophene-2-carboxamido)benzoate] has an inhibition at 100 µM [1] of 20.3%, an IC50 ([2]; Homo sapiens, MDA-MB-231, 48 h) of 8.7 µM and a Selectivity ratio [2] of 6.70. The IC50 ([3]; exposure (table title)) was 58.3 µM.

For COC(=O)c1ccc(N(C)S(=O)(=O)c2cc(C(=O)Nc3cccc(N4CCCCC4)c3)sc2Br)cc1 [Compound 28, methyl 4-((2-bromo-N-methyl-5-((3-(piperidin-1-yl)phenyl)carbamoyl)thiophene)-3-sulfonamido)benzoate], the inhibition at 100 µM [1] was 51.3%, the IC50 ([2]; Homo sapiens, MDA-MB-231, 48 h) was 6.5 µM and the Selectivity ratio [2] was 6.56. It also gave an IC50 ([3]; exposure (table title)) of 42.7 µM.

— patent publication US20200216432A1, “SULFONAMIDE DERIVATIVES AS STAT3 INHIBITORS FOR THE TREATMENT OF PROLIFERATIVE DISEASES” (King's College London, priority 2017, published 2020)
